Assay results reported in patent US9675552B2, “Use of stabilized granules containing glyceryl trinitrate for arteriogenesis” (G. Pohl-Boskamp GmbH & Co. KG, priority 2012, dated 2017).
Values joined by “and” are separate entries in the source; they are usually repeats but may differ in a detail not shown here. Equal values may be shown once.

Test system: left anterior descending coronary artery (LAD) occlusion, Sprague-Dawley rats
Assay: Ventricular arrhythmias (Lown classification, VPB-Score) during final permanent LAD occlusion
Type: in vivo, rat

Compound	rats with class IIIa arrhythmias (Lown) (5 DAYS RIP, during FPO) [%]	rats with class IVb arrhythmias (Lown) (5 DAYS RIP, during FPO) [%]	rats with class 0 arrhythmias (Lown) (rat, in vivo) [%]	rats with class IIIa arrhythmias (Lown) (rat, in vivo) [%]	rats with class IVb arrhythmias (Lown) (rat, in vivo)
CC(=O)Oc1ccccc1C(=O)O [ASA, acetyl salicylic acid]	16.7	83.3			
O=[N+]([O-])OCC(CO[N+](=O)[O-])O[N+](=O)[O-] [NTG, nitroglycerin]			57.1	14.3	85.7% and 42.9%
